Laboratory results as given in patent US20240082293A1, “A VAGINAL CONTRACEPTIVE COMPOSITION FOR REINFORCEMENT OF MUCUS BARRIER PROPERTIES” (CIRQLE BIOMEDICAL CONTRACEPTION ApS, priority 2019, published 2024).

Test system: human sperm penetration through human ovulatory cervical mucus
Experiment: Sperm penetration assay through ovulatory cervical mucus in capillaries (phase contrast microscopy)
Format: cell-based
Settings: for sperm penetration through mucus treated with poly-L-lysine (barrier reinforcing effect): PLL 5 mg/mL in 32.5 mM lactic acid solution, 30 minutes after exposure to undiluted sperm
Experimental: Semen samples of patients and volunteers collected at the Andrology, Sexual Medicine, Transmedicine, clinic (ANOVA, Karolinska University Hospital, Sweden) were run through standard semen kinematic analyses and sperm penetration assays no later than 3 h after collection. Data were obtained for the collection time, abstinence time, and semen volume. Semen was gently liquefied for 30 min on a rocker in an incubation chamber heated up to 37° C., after complete collection of ejaculates by masturbation. The viscosity of semen was determined visually and by pipetting. Semen was microscopically analysed by pipetting 6 μl of specimen in pre-warmed Leja® (Netherland) counting chamber slides (20 micron). Subsequently, specimens were assessed via clinical ECLIPSE 50i microscope (Nikon Instruments, Japan) equipped with stage heater MS 100 (37° C., Linkam Scientific Instruments, UK), 10× objective (Ph1) and 0.5× charge coupled device camera UI-1540LE-M-HQ (IDS Imaging Development Systems GmbH, Germany) with total magnification of 5×. The system was connected to the Computer Aided Semen Analysis software QualiSperm (v3.0.9.486, AKYmed, Switzerland). Beside the sperm concentration [106/m1], the progressive motility [%], motility [%], immotility [%], velocity [μm/s], sperm size [μm2], and number of cells were measured. Semen samples meeting the following criteria were included in this study: volume of >1.5 ml, concentration of >15×10^6/mland >40% progressive motility. These criteria reflect reference limits of the World Health Organization (WHO) (“WHO Laboratory Manual for the Examination and Processing of Human Semen” 2010) and values for normal spermatozoa as stated in Bjorndahl (Lars Bjorndahl. 2011. “What Is Normal Semen Quality? On the Use and Abuse of Reference Limits for the Interpretation of Semen Analysis Results.” Human Fertility 14 (3): 179-86). In each run, ten values were generated by assessing five fields in two chambers.
Ovulatory cervical mucus (CVM) (the CVM with highest penetrability) was collected from healthy donors at the Karolinska University Hospital. […]

Substance | sperm penetration through mucus treated with poly-L-lysine (barrier reinforcing effect) | point at which no sperm is seen (distance into the mucus) (sperm numbers assessed 30 minutes after exposure to undiluted sperm, polymer in lactic acid solution)
poly-L-lysine [low molecular weight PLL] | did not have any effect | 
poly-L-lysine [66 KDa PLL] | able to prevent the entrance of the sperm | around 3 cm
